Values quoted from earlier work in patent US20220265684A1, “COMPOSITIONS AND METHODS FOR TREATING ULCERATIVE COLITIS” (9 METERS BIOPHARMA, INC., priority 2021, published 2022).

Conditions: after administration of 100 mg (1 tablet); Actarit PI

AUC0-∞: 4560 ng·h/mL | Cmax: 2240 ng/mL
Compound: Nc1ccc(CC(=O)O)cc1 [4-APAA, 4-aminophenylacetic acid]
